Activity calls are given as the source filed them. No cut-off for these calls is given here.
Experiments:
[1] = system: A549; experiment: Antiproliferative activity against human A549 cells assessed as cell growth inhibition incubated for 4 hrs by MTT assay; assay type: functional, cell-based; details: A549, 4 h
[2] = Selectivity index, ratio of IC50 for antiproliferative activity against human HT-29 cells to IC50 for antiproliferative activity against human MDA-MB-231 cells; assay type: functional
[3] = system: MDA-MB-231; experiment: Inhibition of colony formation in human MDA-MB-231 cells upto 5 uM for 9 days by crystal violet staining based assay; assay type: functional, cell-based; details: time 9.0 day
[4] = system: HT-29; experiment: Antiproliferative activity against human HT-29 cells assessed as cell growth inhibition incubated for 4 hrs by MTT assay; assay type: functional, cell-based; details: HT-29, 4 h
[5] = system: MDA-MB-231; experiment: Antiproliferative activity against human MDA-MB-231 cells assessed as cell growth inhibition incubated for 4 hrs by MTT assay; assay type: functional, cell-based; details: MDA-MB-231, 4 h
[6] = Selectivity index, ratio of IC50 for antiproliferative activity against human A549 cells to IC50 for antiproliferative activity against human MDA-MB-231 cells; assay type: functional
[7] = system: MDA-MB-231; experiment: Induction of cell cycle arrest in human MDA-MB-231 cells assessed as accumulation of cells at G0/G1 phase at 20 uM incubated for 48 hrs by propidium iodide staining based flow cytometry (reference value: 90.25%); assay type: functional
[8] = system: MDA-MB-231; experiment: Induction of cell cycle arrest in human MDA-MB-231 cells assessed as accumulation of cells at G2/M phase at 20 uM incubated for 48 hrs by propidium iodide staining based flow cytometry (reference value: 3.61%); assay type: functional
[9] = system: MDA-MB-231; experiment: Induction of apoptosis in human MDA-MB-231 cells assessed as viable cells at 1 uM measured for 48 hrs by Annexin V-FITC/PI staining based flow cytometry assay (reference value: 93.7%); assay type: functional; details: read-out: Activity
[10] = system: MDA-MB-231; experiment: Induction of cell cycle arrest in human MDA-MB-231 cells assessed as accumulation of cells at M1 phase at 20 uM incubated for 48 hrs by propidium iodide staining based flow cytometry (reference value: 7.1%); assay type: functional
[11] = system: MDA-MB-231; experiment: Induction of apoptosis in human MDA-MB-231 cells assessed as upregulation of cleaved caspase-3 level upto 20 uM incubated for 48 hrs by Western blot analysis; assay type: functional, cell-based
[12] = system: MDA-MB-231; experiment: Induction of cell cycle arrest in human MDA-MB-231 cells assessed as accumulation of cells at G0/G1 phase at 10 uM incubated for 48 hrs by propidium iodide staining based flow cytometry (reference value: 90.25%); assay type: functional
[13] = system: MDA-MB-231; experiment: Induction of cell cycle arrest in human MDA-MB-231 cells assessed as accumulation of cells at G2/M phase at 1 uM incubated for 48 hrs by propidium iodide staining based flow cytometry (reference value: 3.61%); assay type: functional
[14] = system: MDA-MB-231; experiment: Induction of apoptosis in human MDA-MB-231 cells assessed as early apoptotic cells at 5 uM measured for 48 hrs by Annexin V-FITC/PI staining based flow cytometry assay (reference value: 0.49%); assay type: functional
[15] = system: MDA-MB-231; experiment: Induction of cell cycle arrest in human MDA-MB-231 cells assessed as accumulation of cells at M1 phase at 1 uM incubated for 48 hrs by propidium iodide staining based flow cytometry (reference value: 7.1%); assay type: functional
[16] = system: MDA-MB-231; experiment: Induction of apoptosis in human MDA-MB-231 cells assessed as decrease in Bcl-2 level upto 20 uM incubated for 48 hrs by Western blot analysis; assay type: functional, cell-based
[17] = system: MDA-MB-231; experiment: Induction of cell cycle arrest in human MDA-MB-231 cells assessed as accumulation of cells at S phase at 20 uM incubated for 48 hrs by propidium iodide staining based flow cytometry (reference value: 3.62%); assay type: functional
[18] = system: MDA-MB-231; experiment: Induction of apoptosis in human MDA-MB-231 cells assessed as late apoptotic cells at 5 uM measured for 48 hrs by Annexin V-FITC/PI staining based flow cytometry assay (reference value: 5.39%); assay type: functional
[19] = system: MDA-MB-231; experiment: Induction of apoptosis in human MDA-MB-231 cells assessed as increase in ROS levels at 10 uM measured upto 48 hrs by DCFH-DA staining based flow cytometry assay; assay type: functional, cell-based
[20] = system: MDA-MB-231; experiment: Induction of cell cycle arrest in human MDA-MB-231 cells assessed as accumulation of cells at S phase at 5 uM incubated for 48 hrs by propidium iodide staining based flow cytometry (reference value: 3.62%); assay type: functional
[21] = system: MDA-MB-231; experiment: Induction of cell cycle arrest in human MDA-MB-231 cells assessed as accumulation of cells at S phase at 10 uM incubated for 48 hrs by propidium iodide staining based flow cytometry (reference value: 3.62%); assay type: functional
[22] = system: MDA-MB-231; experiment: Induction of apoptosis in human MDA-MB-231 cells assessed as late apoptotic cells at 13.5 uM measured for 48 hrs by Annexin V-FITC/PI staining based flow cytometry assay (reference value: 5.39%); assay type: functional
[23] = system: MDA-MB-231; experiment: Induction of apoptosis in human MDA-MB-231 cells assessed as increase in ROS levels at 10 uM measured at 12 hrs by DCFH-DA staining based flow cytometry assay; assay type: functional, cell-based
[24] = system: MDA-MB-231; experiment: Induction of apoptosis in human MDA-MB-231 cells assessed as necrotic cells at 1 uM measured for 48 hrs by Annexin V-FITC/PI staining based flow cytometry assay (reference value: 0.43%); assay type: functional
[25] = system: MDA-MB-231; experiment: Induction of apoptosis in human MDA-MB-231 cells assessed as early apoptotic cells at 1 uM measured for 48 hrs by Annexin V-FITC/PI staining based flow cytometry assay (reference value: 0.49%); assay type: functional
[26] = system: MDA-MB-231; experiment: Induction of apoptosis in human MDA-MB-231 cells assessed as early apoptotic cells at 10 uM measured for 48 hrs by Annexin V-FITC/PI staining based flow cytometry assay (reference value: 0.49%); assay type: functional
[27] = system: MDA-MB-231; experiment: Induction of apoptosis in human MDA-MB-231 cells assessed as upregulation of PARP level upto 20 uM incubated for 48 hrs by Western blot analysis; assay type: functional, cell-based
[28] = system: MDA-MB-231; experiment: Induction of apoptosis in human MDA-MB-231 cells assessed as viable cells at 10 uM measured for 48 hrs by Annexin V-FITC/PI staining based flow cytometry assay (reference value: 93.7%); assay type: functional; details: read-out: Activity
[29] = system: MDA-MB-231; experiment: Induction of apoptosis in human MDA-MB-231 cells assessed as necrotic cells at 10 uM measured for 48 hrs by Annexin V-FITC/PI staining based flow cytometry assay (reference value: 0.43%); assay type: functional
[30] = system: MDA-MB-231; experiment: Induction of cell cycle arrest in human MDA-MB-231 cells assessed as accumulation of cells at G0/G1 phase at 1 uM incubated for 48 hrs by propidium iodide staining based flow cytometry (reference value: 90.25%); assay type: functional
[31] = system: MDA-MB-231; experiment: Induction of cell cycle arrest in human MDA-MB-231 cells assessed as accumulation of cells at M1 phase at 5 uM incubated for 48 hrs by propidium iodide staining based flow cytometry (reference value: 7.1%); assay type: functional
[32] = system: MDA-MB-231; experiment: Induction of cell cycle arrest in human MDA-MB-231 cells assessed as accumulation of cells at S phase at 1 uM incubated for 48 hrs by propidium iodide staining based flow cytometry (reference value: 3.62%); assay type: functional
[33] = system: MDA-MB-231; experiment: Induction of apoptosis in human MDA-MB-231 cells assessed as late apoptotic cells at 1 uM measured for 48 hrs by Annexin V-FITC/PI staining based flow cytometry assay (reference value: 5.39%); assay type: functional
[34] = system: MDA-MB-231; experiment: Induction of cell cycle arrest in human MDA-MB-231 cells assessed as accumulation of cells at M1 phase at 10 uM incubated for 48 hrs by propidium iodide staining based flow cytometry (reference value: 7.1%); assay type: functional
[35] = system: MDA-MB-231; experiment: Induction of apoptosis in human MDA-MB-231 cells assessed as increase in Bax level upto 20 uM incubated for 48 hrs by Western blot analysis; assay type: functional, cell-based
[36] = system: MDA-MB-231; experiment: Induction of apoptosis in human MDA-MB-231 cells assessed as necrotic cells at 5 uM measured for 48 hrs by Annexin V-FITC/PI staining based flow cytometry assay (reference value: 0.43%); assay type: functional
[37] = system: MDA-MB-231; experiment: Induction of apoptosis in human MDA-MB-231 cells assessed as viable cells at 5 uM measured for 48 hrs by Annexin V-FITC/PI staining based flow cytometry assay (reference value: 93.7%); assay type: functional; details: read-out: Activity
[38] = system: MDA-MB-231; experiment: Induction of cell cycle arrest in human MDA-MB-231 cells assessed as accumulation of cells at G0/G1 phase at 5 uM incubated for 48 hrs by propidium iodide staining based flow cytometry (reference value: 90.25%); assay type: functional
[39] = system: MDA-MB-231; experiment: Induction of cell cycle arrest in human MDA-MB-231 cells assessed as accumulation of cells at G2/M phase at 5 uM incubated for 48 hrs by propidium iodide staining based flow cytometry (reference value: 3.61%); assay type: functional
[40] = system: MDA-MB-231; experiment: Induction of cell cycle arrest in human MDA-MB-231 cells assessed as accumulation of cells at G2/M phase at 10 uM incubated for 48 hrs by propidium iodide staining based flow cytometry (reference value: 3.61%); assay type: functional

SMILES: COc1ccccc1/C=C/C(=O)NCCNC(=O)[C@H]1CC[C@H]2[C@@H]3CCC4=CC(=O)C=C[C@]4(C)[C@H]3CC[C@]12C
- IC50 [1]: 29.9 µM
- Ratio IC50 [2]: 32.3
- inhibition [3]: Active
- IC50 [4]: 16.8 µM
- IC50 [5]: 0.52 µM
- Ratio IC50 [6]: 57.6

SMILES: COc1ccccc1/C=C/C(=O)NCCNC(=O)[C@H]1CC[C@H]2[C@@H]3CCC4=CC(=O)CC[C@]4(C)[C@H]3CC[C@]12C
- IC50 [1]: 30.9 µM
- Activity [7]: 47.17%
- Activity [8]: 10.01%
- viability at 1 µM [9]: 84%
- Activity [10]: 37.4%
- Activity [11]: Active
- Activity [12]: 55.27%
- Activity [13]: 12.11%
- Activity [14]: 17.1%
- Activity [15]: 13.8%
- Activity [16]: Active
- Activity [17]: 37.22%
- Activity [18]: 4.35%
- Activity [19]: Active
- Activity [20]: 15.23%
- Activity [21]: 28.07%
- Activity [22]: 13.5%
- Activity [23]: Active
- Activity [24]: 0.16%
- Activity [25]: 9.24%
- Activity [26]: 45%
- Activity [27]: Active
- viability at 10 µM [28]: 41.1%
- Activity [29]: 0.4%
- Activity [30]: 84.13%
- Ratio IC50 [2]: 22.5
- Activity [31]: 16%
- Activity [32]: 2.52%
- Activity [33]: 6.63%
- inhibition [3]: Active
- Activity [34]: 22.8%
- Activity [35]: Active
- Activity [36]: 0.16%
- IC50 [4]: 11.7 µM
- viability at 5 µM [37]: 78.3%
- IC50 [5]: 0.42 µM
- Activity [38]: 69.83%
- Activity [39]: 12.25%
- Ratio IC50 [6]: 73.5
- Activity [40]: 13.15%

SMILES: C[C@]12CC[C@H]3[C@@H](CCC4=CC(=O)CC[C@@]43C)[C@@H]1CC[C@@H]2C(=O)NCCNC(=O)/C=C/c1ccccc1
- IC50 [1]: 27.3 µM
- Ratio IC50 [2]: 1.1
- IC50 [4]: 9.49 µM
- IC50 [5]: 10.3 µM
- Ratio IC50 [6]: 2.7

SMILES: O=c1[nH]cc(F)c(=O)[nH]1 [FLUOROURACIL]
- IC50 [1]: 14.5 µM
- Ratio IC50 [2]: 1.3
- IC50 [4]: 12.7 µM
- IC50 [5]: 9.89 µM
- Ratio IC50 [6]: 1.5

SMILES: C[C@]12CC[C@H]3[C@@H](CCC4=CC(=O)C=C[C@@]43C)[C@@H]1CC[C@@H]2C(=O)NCCNC(=O)/C=C/c1ccc([N+](=O)[O-])cc1
- IC50 [1]: > 40 µM
- Ratio IC50 [2]: >1.8
- IC50 [4]: > 40 µM
- IC50 [5]: 22.6 µM
- Ratio IC50 [6]: >1.8

SMILES: COc1ccc(/C=C/C(=O)NCCNC(=O)[C@H]2CC[C@H]3[C@@H]4CCC5=CC(=O)CC[C@]5(C)[C@H]4CC[C@]23C)cc1OC
- IC50 [1]: 35.1 µM
- Ratio IC50 [2]: 1
- IC50 [4]: 14.7 µM
- IC50 [5]: 15.2 µM
- Ratio IC50 [6]: 2.3

SMILES: C[C@]12CC[C@H]3[C@@H](CCC4=CC(=O)CC[C@@]43C)[C@@H]1CC[C@@H]2C(=O)NCCNC(=O)/C=C/c1ccc(C(F)(F)F)cc1
- IC50 [1]: > 40 µM
- Ratio IC50 [2]: 3.7
- IC50 [4]: 34.2 µM
- IC50 [5]: 9.21 µM
- Ratio IC50 [6]: >4.3
